Reference: publication PMC4979471 (Cell Death Discovery, 2015)
Read-outs that look alike come from different tables or passages of the source.

Experiments:
Experiment in all cases: Kinase selectivity, P33-radiolabeled assay
Assay type in all cases: biochemical
Conditions in all cases: 10 μM ATP
PAK2 = target: T1, PAK2 (Homo sapiens, UniProt Q13177)
T1 construct: purchased Reaction Biology Corp
Procedure, shortened: (§1)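 Reactions contained 10 μM ATP and 10 μM test compound, each run in duplicate. Kinase activity is expressed as a percentage of DMSO-treated controls.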

FES/FPS = target: T2, FES/FPS (Homo sapiens, UniProt P07332)
T2 construct: purchased Reaction Biology Corp
T2 sequence (P07332 whole entry): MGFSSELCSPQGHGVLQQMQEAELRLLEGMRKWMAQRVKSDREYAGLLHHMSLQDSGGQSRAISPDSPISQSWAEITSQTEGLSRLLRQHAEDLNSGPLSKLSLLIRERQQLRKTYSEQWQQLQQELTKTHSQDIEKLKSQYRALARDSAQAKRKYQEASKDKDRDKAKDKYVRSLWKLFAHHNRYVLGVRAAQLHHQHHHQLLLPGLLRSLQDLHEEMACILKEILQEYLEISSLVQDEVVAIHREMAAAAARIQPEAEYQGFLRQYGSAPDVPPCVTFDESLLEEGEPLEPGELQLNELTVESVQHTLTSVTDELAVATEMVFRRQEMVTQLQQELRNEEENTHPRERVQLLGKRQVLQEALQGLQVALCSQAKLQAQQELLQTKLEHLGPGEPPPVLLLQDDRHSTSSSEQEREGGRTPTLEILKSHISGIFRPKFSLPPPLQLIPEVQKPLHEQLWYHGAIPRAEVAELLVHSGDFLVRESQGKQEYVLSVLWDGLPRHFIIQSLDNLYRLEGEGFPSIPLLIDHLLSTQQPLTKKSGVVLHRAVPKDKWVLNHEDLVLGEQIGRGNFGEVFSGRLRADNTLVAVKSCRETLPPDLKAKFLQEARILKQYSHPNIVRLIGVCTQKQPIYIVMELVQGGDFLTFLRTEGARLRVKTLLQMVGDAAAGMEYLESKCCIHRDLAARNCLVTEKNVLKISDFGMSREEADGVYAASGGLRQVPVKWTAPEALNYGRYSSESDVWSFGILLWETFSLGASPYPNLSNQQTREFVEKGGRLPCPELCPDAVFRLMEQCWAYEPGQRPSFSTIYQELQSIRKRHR
Procedure, shortened: as §1

MAPKAPK3 = target: T3, MAPKAPK3 (Homo sapiens, UniProt Q16644)
T3 construct: purchased Reaction Biology Corp
T3 sequence (Q16644 whole entry): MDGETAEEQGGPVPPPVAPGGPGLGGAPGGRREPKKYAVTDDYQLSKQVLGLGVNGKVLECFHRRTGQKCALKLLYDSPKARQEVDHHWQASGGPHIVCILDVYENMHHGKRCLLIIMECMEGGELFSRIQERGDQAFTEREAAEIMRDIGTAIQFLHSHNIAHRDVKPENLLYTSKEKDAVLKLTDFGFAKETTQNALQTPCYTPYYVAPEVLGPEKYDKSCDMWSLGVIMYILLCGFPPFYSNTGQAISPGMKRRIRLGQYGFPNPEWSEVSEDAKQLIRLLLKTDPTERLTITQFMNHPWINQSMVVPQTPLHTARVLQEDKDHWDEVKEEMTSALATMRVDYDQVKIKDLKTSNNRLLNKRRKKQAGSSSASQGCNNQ
Procedure, shortened: as §1

PLK3 = target: T4, PLK3 (Homo sapiens, UniProt Q9H4B4)
T4 construct: purchased Reaction Biology Corp
T4 sequence (Q9H4B4 whole entry): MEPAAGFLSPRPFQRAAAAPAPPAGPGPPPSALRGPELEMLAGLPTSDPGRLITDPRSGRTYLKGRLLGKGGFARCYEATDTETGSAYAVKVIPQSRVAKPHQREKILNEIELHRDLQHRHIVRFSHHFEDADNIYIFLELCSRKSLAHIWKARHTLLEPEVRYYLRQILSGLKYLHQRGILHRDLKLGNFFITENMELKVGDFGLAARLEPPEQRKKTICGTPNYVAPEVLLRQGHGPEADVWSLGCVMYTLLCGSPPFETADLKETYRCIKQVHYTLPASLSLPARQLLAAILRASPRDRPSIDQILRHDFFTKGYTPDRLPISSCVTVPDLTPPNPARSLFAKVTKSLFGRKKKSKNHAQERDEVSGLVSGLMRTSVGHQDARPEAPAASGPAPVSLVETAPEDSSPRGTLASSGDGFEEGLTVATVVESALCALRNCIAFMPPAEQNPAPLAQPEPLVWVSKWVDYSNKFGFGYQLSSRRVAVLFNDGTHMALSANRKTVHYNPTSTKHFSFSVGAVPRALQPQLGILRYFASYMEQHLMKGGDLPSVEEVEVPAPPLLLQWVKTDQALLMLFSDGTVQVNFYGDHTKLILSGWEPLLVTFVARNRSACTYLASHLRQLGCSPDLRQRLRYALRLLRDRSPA
Procedure, shortened: as §1

TSSK2 = target: T5, TSSK2 (Homo sapiens, UniProt Q96PF2)
T5 construct: purchased Reaction Biology Corp
T5 sequence (Q96PF2 1-358): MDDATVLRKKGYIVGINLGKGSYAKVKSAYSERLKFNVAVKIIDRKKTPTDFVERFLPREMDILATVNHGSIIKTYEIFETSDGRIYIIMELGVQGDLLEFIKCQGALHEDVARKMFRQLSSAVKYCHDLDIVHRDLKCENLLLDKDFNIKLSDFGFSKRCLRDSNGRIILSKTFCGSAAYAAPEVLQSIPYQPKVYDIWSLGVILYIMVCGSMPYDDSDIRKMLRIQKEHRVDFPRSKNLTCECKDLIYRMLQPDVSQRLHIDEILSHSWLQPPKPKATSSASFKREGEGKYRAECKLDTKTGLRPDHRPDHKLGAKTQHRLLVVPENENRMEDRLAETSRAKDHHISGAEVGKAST
Procedure, shortened: as §1

TRKA = target: T6, TRKA (Homo sapiens, UniProt P04629)
T6 construct: purchased Reaction Biology Corp
T6 sequence (P04629 33-796): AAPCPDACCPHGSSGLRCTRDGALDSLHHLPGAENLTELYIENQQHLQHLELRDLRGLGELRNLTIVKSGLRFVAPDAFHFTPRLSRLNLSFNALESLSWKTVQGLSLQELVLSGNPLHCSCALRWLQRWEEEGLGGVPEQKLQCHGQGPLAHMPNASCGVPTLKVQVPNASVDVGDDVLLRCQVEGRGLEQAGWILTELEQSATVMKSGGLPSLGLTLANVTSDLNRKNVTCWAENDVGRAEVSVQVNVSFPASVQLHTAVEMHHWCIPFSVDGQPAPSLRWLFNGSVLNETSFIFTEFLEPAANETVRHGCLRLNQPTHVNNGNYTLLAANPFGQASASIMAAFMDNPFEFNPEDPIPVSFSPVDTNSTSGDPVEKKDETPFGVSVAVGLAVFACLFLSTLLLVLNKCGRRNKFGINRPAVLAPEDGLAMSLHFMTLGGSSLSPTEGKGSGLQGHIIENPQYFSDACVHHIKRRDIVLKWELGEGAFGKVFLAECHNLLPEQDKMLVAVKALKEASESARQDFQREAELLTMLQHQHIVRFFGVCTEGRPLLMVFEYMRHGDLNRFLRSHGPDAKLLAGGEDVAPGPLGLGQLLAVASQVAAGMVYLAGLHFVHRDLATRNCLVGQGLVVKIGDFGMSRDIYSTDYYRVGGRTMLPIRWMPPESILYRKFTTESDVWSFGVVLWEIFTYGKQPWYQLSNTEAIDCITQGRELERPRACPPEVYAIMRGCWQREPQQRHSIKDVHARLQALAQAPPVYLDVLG
Procedure, shortened: as §1

EPHA6 = target: T7, EPHA6 (Homo sapiens, UniProt Q9UF33)
T7 construct: purchased Reaction Biology Corp
T7 sequence (Q9UF33 23-1036): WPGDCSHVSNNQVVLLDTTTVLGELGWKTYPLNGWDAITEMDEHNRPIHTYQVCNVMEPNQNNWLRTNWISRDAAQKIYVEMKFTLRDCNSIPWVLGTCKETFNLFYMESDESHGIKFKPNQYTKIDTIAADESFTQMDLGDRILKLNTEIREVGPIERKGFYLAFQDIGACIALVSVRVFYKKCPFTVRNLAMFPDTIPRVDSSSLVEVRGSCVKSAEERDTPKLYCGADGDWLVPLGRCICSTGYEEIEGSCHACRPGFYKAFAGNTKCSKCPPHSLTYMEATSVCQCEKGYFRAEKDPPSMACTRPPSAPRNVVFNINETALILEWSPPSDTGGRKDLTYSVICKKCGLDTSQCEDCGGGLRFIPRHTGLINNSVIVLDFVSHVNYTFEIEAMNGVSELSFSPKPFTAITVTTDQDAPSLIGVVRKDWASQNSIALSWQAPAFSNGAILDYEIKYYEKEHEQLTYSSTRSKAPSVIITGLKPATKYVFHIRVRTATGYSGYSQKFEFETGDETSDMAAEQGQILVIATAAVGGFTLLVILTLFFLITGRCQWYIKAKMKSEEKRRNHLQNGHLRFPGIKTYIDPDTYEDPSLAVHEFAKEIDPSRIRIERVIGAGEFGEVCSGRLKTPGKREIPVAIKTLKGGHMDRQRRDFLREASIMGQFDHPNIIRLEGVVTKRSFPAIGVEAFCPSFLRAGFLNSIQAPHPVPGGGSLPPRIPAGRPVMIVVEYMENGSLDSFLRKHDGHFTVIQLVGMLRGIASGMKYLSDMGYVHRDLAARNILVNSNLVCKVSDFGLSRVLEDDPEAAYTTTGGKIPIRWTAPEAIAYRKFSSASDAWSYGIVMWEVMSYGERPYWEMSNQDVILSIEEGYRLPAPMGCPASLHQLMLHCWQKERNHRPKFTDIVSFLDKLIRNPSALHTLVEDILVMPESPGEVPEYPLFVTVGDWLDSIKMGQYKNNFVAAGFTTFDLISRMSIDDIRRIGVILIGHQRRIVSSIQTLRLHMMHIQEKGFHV
Procedure, shortened: as §1

IRR/INSRR = target: T8, IRR/INSRR (Homo sapiens, UniProt P14616)
T8 construct: purchased Reaction Biology Corp
T8 sequence (P14616 27-1297): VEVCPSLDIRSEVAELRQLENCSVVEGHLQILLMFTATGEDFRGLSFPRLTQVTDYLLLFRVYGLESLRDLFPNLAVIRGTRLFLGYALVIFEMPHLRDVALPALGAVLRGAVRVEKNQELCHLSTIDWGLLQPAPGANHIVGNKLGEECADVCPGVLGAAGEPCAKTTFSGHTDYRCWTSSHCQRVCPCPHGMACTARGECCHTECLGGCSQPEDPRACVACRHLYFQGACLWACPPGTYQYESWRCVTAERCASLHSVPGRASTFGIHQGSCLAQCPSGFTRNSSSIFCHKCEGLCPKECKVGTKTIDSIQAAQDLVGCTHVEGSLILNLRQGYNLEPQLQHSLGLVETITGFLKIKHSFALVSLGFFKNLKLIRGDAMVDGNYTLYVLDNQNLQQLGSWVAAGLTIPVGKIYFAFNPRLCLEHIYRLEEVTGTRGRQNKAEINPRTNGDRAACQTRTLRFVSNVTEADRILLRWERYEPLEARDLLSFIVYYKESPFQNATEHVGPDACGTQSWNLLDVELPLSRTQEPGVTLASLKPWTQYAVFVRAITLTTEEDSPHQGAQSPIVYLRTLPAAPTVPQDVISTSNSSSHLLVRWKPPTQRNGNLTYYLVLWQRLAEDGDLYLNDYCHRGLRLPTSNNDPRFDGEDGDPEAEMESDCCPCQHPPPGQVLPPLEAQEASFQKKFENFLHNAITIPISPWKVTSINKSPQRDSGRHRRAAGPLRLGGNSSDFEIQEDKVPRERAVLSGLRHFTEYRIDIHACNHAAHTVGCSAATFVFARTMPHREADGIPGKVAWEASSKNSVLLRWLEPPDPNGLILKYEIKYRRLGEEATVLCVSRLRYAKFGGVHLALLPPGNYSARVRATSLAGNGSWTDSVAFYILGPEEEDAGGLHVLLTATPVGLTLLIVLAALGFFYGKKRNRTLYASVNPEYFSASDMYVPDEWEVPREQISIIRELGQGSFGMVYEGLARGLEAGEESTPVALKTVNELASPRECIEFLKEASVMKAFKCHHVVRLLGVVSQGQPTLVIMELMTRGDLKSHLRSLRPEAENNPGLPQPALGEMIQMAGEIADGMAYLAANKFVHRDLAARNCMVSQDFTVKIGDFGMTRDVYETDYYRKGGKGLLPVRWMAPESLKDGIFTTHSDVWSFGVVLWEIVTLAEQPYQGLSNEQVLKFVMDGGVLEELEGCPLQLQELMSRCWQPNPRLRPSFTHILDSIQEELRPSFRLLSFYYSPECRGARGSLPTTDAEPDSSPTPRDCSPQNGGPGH
Procedure, shortened: as §1

[1] = read-out: % Enzyme Activity (relative to DMSO controls) AVG
[2] = read-out: % Enzyme Activity (relative to DMSO controls) Data 1
[3] = read-out: % Enzyme Activity (relative to DMSO controls) Data 2

T1 sequence (Q13177 whole entry): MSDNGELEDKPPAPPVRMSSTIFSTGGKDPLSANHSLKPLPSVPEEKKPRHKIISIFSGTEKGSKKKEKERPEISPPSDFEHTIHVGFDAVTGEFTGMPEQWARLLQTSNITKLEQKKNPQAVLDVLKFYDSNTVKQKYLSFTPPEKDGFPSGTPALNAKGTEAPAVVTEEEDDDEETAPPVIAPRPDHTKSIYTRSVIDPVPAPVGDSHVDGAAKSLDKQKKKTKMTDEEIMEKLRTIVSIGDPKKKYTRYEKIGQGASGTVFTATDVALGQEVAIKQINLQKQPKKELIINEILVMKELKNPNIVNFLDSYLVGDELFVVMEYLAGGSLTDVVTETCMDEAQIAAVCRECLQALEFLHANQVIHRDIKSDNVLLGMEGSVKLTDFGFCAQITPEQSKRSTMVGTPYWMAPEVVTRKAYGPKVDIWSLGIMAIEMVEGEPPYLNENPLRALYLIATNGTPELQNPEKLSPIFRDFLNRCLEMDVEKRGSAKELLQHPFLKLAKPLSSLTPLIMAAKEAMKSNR

`CC(C)(C)C(=O)N1N=CC[C@H]1c1ccccc1` [GSK′963] showed a remaining activity at 10 µM (PAK2; [1]) of 95.8%, a remaining activity at 10 µM (PAK2; [2]) of 94.9% and a remaining activity at 10 µM (PAK2; [3]) of 96.8%. It also gave a remaining activity at 10 µM (FES/FPS; [1]) of 91.3%, a remaining activity at 10 µM (FES/FPS; [2]) of 93.2% and a remaining activity at 10 µM (FES/FPS; [3]) of 89.5%. For the same compound, the remaining activity at 10 µM (MAPKAPK3; [1]) was 103%, the remaining activity at 10 µM (MAPKAPK3; [2]) was 104% and the remaining activity at 10 µM (MAPKAPK3; [3]) was 103%. It also gave a remaining activity at 10 µM (PLK3; [1]) of 92.5%, a remaining activity at 10 µM (PLK3; [2]) of 95.5% and a remaining activity at 10 µM (PLK3; [3]) of 89.5%. The remaining activity at 10 µM (TSSK2; [1]) was 104%, the remaining activity at 10 µM (TSSK2; [2]) was 102% and the remaining activity at 10 µM (TSSK2; [3]) was 105%. The remaining activity at 10 µM (TRKA; [1]) was 99.8%, the remaining activity at 10 µM (TRKA; [2]) was 98.2% and the remaining activity at 10 µM (TRKA; [3]) was 101%. The remaining activity at 10 µM (EPHA6; [1]) was 99.3%, the remaining activity at 10 µM (EPHA6; [2]) was 101% and the remaining activity at 10 µM (EPHA6; [3]) was 97.5%. It also gave a remaining activity at 10 µM (IRR/INSRR; [1]) of 75.3%, a remaining activity at 10 µM (IRR/INSRR; [2]) of 72.8% and a remaining activity at 10 µM (IRR/INSRR; [3]) of 77.7%.
